Results published in US8993585B2, “Cyclic amine substituted pyrimidinediamines as PKC inhibitors” (Rigel Pharmaceuticals, Inc., priority 2007, dated 2015).

test system: Human primary T cells; assay: IL-2 ELISA, Human Primary T Cell, Anti-CD3+CD28+ (Example 3); format: cell-based; settings: Homo sapiens, T-cell, 24 h, anti-CD3+CD28 stimulation
Method: Human primary T cell isolation and culture: Human primary T cells were prepared as follows. […] The cells at the serum:ficoll interface were recovered and washed twice with 5 volumes of PBS. […] The primary T-cells were then washed twice with PBS to remove the IL-2.
Primary T cell stimulation and IL2 ELISA: Human primary T cells (100,000 cells per well) were pre-incubated with or without test compound in Yssel's medium for 1 hr at 37° C. Cells were then stimulated by transferring them to round-bottom 96-well plates pre-coated with 1 ug/ml αCD3 and 5 μg/ml αCD28. For counter assay, cells were instead stimulated by adding 8× stock solutions of PMA and ionomycin in Yssels (for final concentrations of 0.5 ng/ml PMA and 0.1 uM ionomycin, both from Calbiochem).

| IC50 | SMILES |
| --- | --- |
| 91.8 nM | CCN1C(=O)C(C)(C)Oc2cc(Nc3ncc(C(F)(F)F)c(NC4CC(C)(C)N(C)C(C)(C)C4)n3)ccc21 [II-50] |
| 2850 nM | COc1ccc(Nc2ncc(F)c(N(Cc3ccc(-c4ccccc4)cc3)C3CC(C)(C)N(C)C(C)(C)C3)n2)cc1OC(F)F [Compound I-319] |
| 678 nM | CN1C(C)(C)CC(Nc2nc(Nc3ccc4c(c3)oc(=O)n4C)ncc2F)CC1(C)C [II-36] |
| 1410 nM | CN1C(C)(C)CC(N(Cc2ccccc2)c2nc(Nc3ccc(N4CCN(S(C)(=O)=O)CC4)c(C(F)(F)F)c3)ncc2F)CC1(C)C [Compound I-310] |
| 804 nM | CN1CCN(c2ccc(Nc3ncc(F)c(N(Cc4ccccc4)C4CC(C)(C)N(C)C(C)(C)C4)n3)cc2C(F)(F)F)CC1 [Compound I-311] |

Second part, the molecule before the results:

| SMILES | IC50 |
| --- | --- |
| COc1cc(Nc2ncc(C)c(NC3CC(C)(C)N(C)C(C)(C)C3)n2)cc(OC)c1 [Compound I-425] | 1140 nM |
| CN1C(C)(C)CC(Nc2nc(Nc3cc4c(cc3Br)OC(F)(F)O4)ncc2F)CC1(C)C [II-122] | 2160 nM |
| CN(C)c1ccc(-c2ccc(Nc3ncc(F)c(NC4CC(C)(C)NC(C)(C)C4)n3)cc2C#N)cn1 [Compound I-428] | 560 nM |
| CC1(C)CC(Nc2nc(Nc3ccc4c(c3)OCC(C(N)=O)O4)ncc2F)CC(C)(C)N1 (stereo not shown) [II-159] | 8910 nM |
| CCN1C(=O)C(C)(C)Oc2cc(Nc3ncc(F)c(NC4CC(C)(C)N(C)C(C)(C)C4)n3)cnc21 [II-55] | 258 nM |
| CN1C(C)(C)CC(Nc2nc(N[C@@H]3CCc4ccccc43)ncc2F)CC1(C)C [II-84] | 17500 nM |
| CN1C(C)(C)CC(Nc2nc(Nc3nc4ccc([N+](=O)[O-])cc4s3)ncc2F)CC1(C)C [II-17] | 845 nM |
| CN1C(=O)c2ccc(Nc3ncc(F)c(NC4CC(C)(C)NC(C)(C)C4)n3)cc2C1=O [II-153] | 1800 nM |
| CN1C(C)(C)CC(Nc2nc(Nc3ccc4c(c3)OC3(CCCC3)O4)ncc2F)CC1(C)C [II-113] | 2170 nM |

same assay, conditions: anti-CD3+CD28 stimulation, 24 hours

| IC50 | SMILES |
| --- | --- |
| 461 nM | CN1CCN(c2c(F)cc(Nc3ncc(F)c(NC4CC(C)(C)N(C)C(C)(C)C4)n3)cc2F)CC1 [Compound I-40] |
| 9840 nM | Cc1cnc(Nc2cccc(S(N)(=O)=O)c2)nc1NC1CC(C)(C)N(C)C(C)(C)C1 [Compound I-14] |
| 1940 nM | CN1CCN(c2ccc(Nc3ncc(F)c(NC4CC(C)(C)N(C)C(C)(C)C4)n3)cc2C(N)=O)CC1 [Compound I-53] |
| 133 nM | CN1CCN(Cc2ccc(Nc3ncc(F)c(NC4CC(C)(C)N(C)C(C)(C)C4)n3)cc2C(F)(F)F)CC1 [Compound I-52] |
| 585 nM | CN1CCN(c2ccc(Nc3nccc(NC4CC(C)(C)N(C)C(C)(C)C4)n3)cc2C(F)(F)F)CC1 [Compound I-229] |
| 1440 nM | CN1C(C)(C)CC(Nc2nc(Nc3ccc(C(F)(F)F)c(C(F)(F)F)c3)ncc2F)CC1(C)C [Compound I-410] |

Second part, the molecule before the results:

| SMILES | IC50 |
| --- | --- |
| COc1cc(Nc2ncc(F)c(NC3CC(C)(C)N(C)C(C)(C)C3)n2)ccc1-n1nnnc1C [Compound I-407] | 2690 nM |
| CN1C(C)(C)CC(Nc2nc(Nc3cc(O)cc(O)c3)ncc2F)CC1(C)C [Compound I-384] | 9510 nM |
| CC1(C)CC(Nc2nc(Nc3cc(O)cc(O)c3)ncc2F)CC(C)(C)N1 [Compound I-383] | 30000 nM |
| COc1cc(Nc2ncc(C#N)c(NC3CC(C)(C)N(C)C(C)(C)C3)n2)cc(-n2cnnn2)c1 [Compound I-404] | 170 nM |
| CN1C(C)(C)CC(Nc2nc(Nc3ccc4cn[nH]c4c3)ncc2F)CC1(C)C [II-40] | 2970 nM |
| CN1C(C)(C)CC(Nc2nc(Nc3cnc(N4CCOCC4)c(Cl)c3)ncc2F)CC1(C)C [Compound I-290] | 596 nM |
| CN1C(C)(C)CC(Nc2nc(Nc3cccc(C#N)c3)ncc2[N+](=O)[O-])CC1(C)C [Compound I-72] | 992 nM |
| COCCOc1cc(Nc2ncc(F)c(NC3CC(C)(C)N(C)C(C)(C)C3)n2)cc(OCCOC)c1 [Compound I-385] | 1180 nM |
